# Test results reported in patent EP2042178A1, “Ocular formulations comprising 5-chlorouracil and use thereof” (INSTITUT NATIONAL DE LA SANTE ET DE LA RECHERCHE MEDICALE …, priority 2007, dated 2009).
# Like-named read-outs stand apart in the source and are kept apart here.
# Key:
# [1] = system: human conjunctival cell line (Wong-Kilbourne derivative of Chang conjunctiva); assay: Hoechst 33342 test (chromatin condensation, with propidium iodide); assay type: cell-based; conditions: for chromatin condensation compared to control cells: up to 1 µg/ml; for chromatin condensation: increasing concentrations >1 µg/ml
# Description: (§1) Normal culture development was assessed daily by phase-contrast microscopy. Confluent cultures were removed by gentle trypsin incubation, and cells were counted. For cytotoxicity experiments, cells were seeded into 96-well culture plates (18'000 cells per well; Nunc, Roskild, Denmark) until sub-confluence (culture surface covering nearly 70%) and were then exposed to the different formulations. Experiments were performed by microplate cold light fluorometry (Fluorolite 1000 Dynex; Issy-les-Moulineaux, France), as previously validated (Debbasch et al., 2001, Invest. Ophthalmol. Vis. Sci., 42, 642-652). According to the recommendations of the European Center for the Validation of Alternative Methods (ECVAM) and to previously validated methods in the Chang cell line, two cellular markers were evaluated: cellular viability and chromatin condensation. Cellular viability was evaluated with a neutral red (Fluka, Ronkonkoma, NY) test with fluorometric detection (excitation: 535 nm; emission: 600 nm). Hoechst 33342 (Molecular Probes, Eugene, OR) is an intercalating dye, which allows the determination of the total chromatin quantity variations and the degree of chromatin condensation. […] was used on cells at a final concentration of 10 µg/ml (excitation: 360 nm; emission: 450 nm). 0.5 mg/ml propidium iodide (Roche Diagnostics Corp., Meylan, France) was added to the Hoechst solution, to control necrotic cells, as previously validated. The supravital uptake of Hoechst 33342 combined with extrusion of propidium iodide was used as an assay for apoptosis as described in Belloc et al., 1994, Cytometry, 17, 59-65. […] It is defined by a series of cellular changes: (a) the cell shrinks, looses contact with neighbouring cells or surrounding matrix and starts to display intracellular proteins on its surface; (b) the chromatin in the nucleus condenses and the DNA is cleaved into small fragments; (c) the plasma membrane then begins to show a bubbled appearance and small membrane bound bodies break off containing intracellular material which can include nuclear matter and cellular organelles. These fragments are known as "apoptotic bodies" which are quickly removed by phagocytes or by neighbouring cells.
# The value of IC50 (concentration inhibiting 50% of cell population) was used to compare 5-FU and 5-CU cytotoxicities. Dulbecco's minimum essential medium was used as a control, and was used to dilute the tested molecules.
# [2] = system: human conjunctival cell line (Wong-Kilbourne derivative of Chang conjunctiva); assay: Neutral red test (cellular viability); assay type: cell-based; conditions: for cell viability decrease: concentrations up to 10 µg/ml; for IC50: Homo sapiens, 72 hours of exposure
# Description: as §1
# In these experiments, cell viability and chromatin condensation were evaluated after a 24 and 72 hour-incubation, with […] of 5-chlorouracil as compared with the same concentrations of 5-fluorouracil. The value of IC50 (concentration inhibiting 50% of cell population) was used to compare 5-FU and 5-CU cytotoxicities. Dulbecco's minimum essential medium was used as a control, and was used to dilute the tested molecules.
# [3] = system: rabbit Tenon's capsule fibroblasts; conditions: for cell death: sub-confluent fibroblasts, 24 hours
# Description: Cells were seeded at a density of 2 x 10^4 cells / well until reaching subconfluency and were then treated with 5-chlorouracil (5-CU) or with 5-fluorouracil (5-FU) at different concentrations (0, 0.5, 5, 50, 500, 1'000 or 5'000 µg/ml) for 24 hours.
# MTT (Sigma) (1mg/ml in PBS) was added to the wells and plates were incubated at 37°C for 1 hour. Isopropanol was then added and mixed thoroughly to dissolve the dark blue crystals and the plates were rapidly read on a BIO-RAD Model 450 Microplate reader, using a test wavelength of 570 nm and a reference wavelength of 630 nm.
# [4] = In vitro rate of release from POE IV formulation; assay type: physicochemical
# Description: Formulations were prepared under a laminar airflow hood. […] The viscous mixture was conditioned in a 1.0 ml syringe, each sample being 200µl (240 mg). In a preliminary investigation, the in vitro rate of release of 5-CU was determined according to the procedure described by Merkli et al., 1998, J. Control. […] 5-FU in vitro rate of release from POE IV has also previously been described by Heller et al, 2005, Adv. Drug Delivery Rev., 57(14)2053-62.
# [5] = system: rabbit fibroblasts; assay: Trypan blue exclusion test / cell counting, fibroblast proliferation; conditions: for concentration at which inhibition of cell proliferation is significant: 24 hours exposure; for inhibition at 10 µg/mL / inhibition at 20 µg/mL / inhibition at 100 µg/mL: Oryctolagus cuniculus, Fibroblast, 24 h, read-out: inhibition of cell proliferation
# [6] = same conditions, Heller et al., 2005; cited from earlier work
# [7] = sub-conjunctival injection, cited from earlier work
# [8] = Hoechst and neutral red results combined, 72 hours of exposure
# [9] = Hoechst test, high concentrations
SMILES,chromatin condensation compared to control cells ([1]; 24 hours),"type of cell death induced [1, 8]","type of cell death induced [1, 9]",cell viability decrease ([2]; 24 hour-incubation),IC50 [2],concentration at which inhibition of cell proliferation is significant [5],inhibition at 10 µg/mL [5],inhibition at 20 µg/mL [5],inhibition at 100 µg/mL [5],other results
"O=c1[nH]cc(Cl)c(=O)[nH]1 [5-CU, 5-chloro-1H-pyrimidine-2,4-dione]",no significant difference,apoptotic cell death,apoptotic cell death,about 20%,2500 µg/mL,≥ 10 µg/mL,23%,23%,25%,"Hoechst fluorescence compared with identical 5-FU concentrations ([1]; 24 hours, increasing concentrations up to 1'000 µg/ml, P=0.0079): very significant increase; cell death ([2]; 24 hour-incubation, 1'000 µg/ml): 35%; cell death ([2]; 72 hour-incubation, 4 mg/ml (highest concentration)): 75%; times less toxic to non-proliferating cells than 5-FU ([3]; rabbit, 24 h): 1'000 times; cell death ([3]; 5'000 µg/ml): 33%; daily release rate ([4]; 1% 5-CU from POE IV formulation, for up to forty days): approximately 8 µg/day; in vitro rate of release ([4]; from POE IV, 1% wt/wt, over a period of up to 40 days, preliminary investigation): 8 micrograms per day"
"O=c1[nH]cc(F)c(=O)[nH]1 [5-FU, 5-fluorouracil]",no significant difference,apopto-necrotic cell death,necrotic cell death,about 20%,7 µg/mL,≥ 10 µg/mL,28%,40%,43%,"chromatin condensation ([1]; 24 hours, P=0.0079): dose-dependant significant decrease; chromatin condensation ([1]; 72 hours, P=0.02): dose-dependant significant decrease; cell death ([2]; 24 hour-incubation, 100 µg/ml): 55%; cellular viability ([2]; 72 hour-incubation, 1 µg/ml): significantly decreased; cell death ([3]; 5 µg/ml): 39.1%; cell death ([3]; 50 µg/ml): 51%; in vitro rate of release from POE IV [6]: 100 µg per day; corneal levels ([7]; at 1 hour): 20 µg/g; corneal levels ([7]; at 24 hours): 5 µg/g; time for which ID50 levels are maintained ([7]; at the injection site and 180° from it): up to 24 hours"
